Reference: patent US6569845B1, “Neovascularization inhibitor containing dienogest as the active ingredient” (Mochida Pharmaceutical Co., Ltd., priority 1997, dated 2003)

Key:
[1] = system: chorioallantoic membrane of chick fertilized egg; experiment: CAM (chick embryo chorioallantoic membrane) assay, suppressing action of angiogenesis; assay type: in vivo; conditions: for Number of choriallantoic membrane with non-vascular region: EV pellet, 2 days at 37° C.
Description: Suppressing Action of Angiogenesis According to CAM (Chick Embryo Chorioallantoic Membrane) Assay
According to the method by Hayashi, et al. (Mechanism of Angiogenesis and Diseases, Medical Journal, pp. 255-266, 1996), the suppressing action of angiogenesis was tested by the CAM assay using chorioallantoic membrane of chick fertilized egg. More specifically, a hole was opened through a chick fertilized egg incubated in an incubator at 37° C. for 4 or 5 days, and then, a silicone ring of an outer diameter of 5 mm and an inner diameter of 3 mm was gently placed on the center of the chorioallantoic membrane, followed by placement of an EV (ethylene-vinyl acetate copolymer) pellet containing dienogest or MPA inside the ring. A chorioallantoic membrane on which an EV pellet with no sample was placed was used as a control group. After incubation at 37° C. for 2 days, a fat emulsion preparation was injected into each chorioallantoic membrane, so as to get a clear view of the vascular network on the chorioallantoic membrane, for subsequent observation. Formation of a non-vascular region of a diameter of 3 mm or more on the chorioallantoic membrane was defined as positive suppressing action on angiogenesis.
a: frequency in % of the occurrence of non-vascular region, in parenthesis.
b: Data of suppressing action on angiogenesis is statistically tested by the Fisher's accurate probability test.

[2] = system: angiogenesis induced by the S-180 tumor cells; experiment: Murine dorsal air sac assay, angiogenesis induced by S-180 tumor cells; assay type: in vivo; conditions: mouse
Description: Suppressing Action of Angiogenesis by Murine Dorsal Air Sac Assay According to the method by Iwabana et al. (Cancer Invasion & Metastatic Research Manual, Kinpodo, pp. 172-176, 1995), suppressing action of angiogenesis was tested by the murine dorsal skin method. S-180 tumor cell (murine derived sarcoma) suspended in phosphate buffered saline (PBS) was injected into a Millipore chamber, and the injection opening was closed with a nylon stopper. With an injection syringe, air (10 ml) was injected into the dorsal skin of a mouse anesthetized with Nembutal, to prepare an […], into which the Millipore chamber was transplanted. Animals were preliminarily divided into 4 groups; a Millipore chamber injected with PBS instead of S-180 tumor cells was transplanted into animals of a non-treatment control group (group A), which were then orally given 0.5% CMC carboxymethyl cellulose sodium (0.5% CMC, Wako Pure Chemical Industries, Co.) for 5 days. […] After placing a black ring of the same diameter as the diameter of these chambers at the position of the chambers in place, the number of newly formed vessels of a length of 3 mm or more inside the ring was counted under a stereoscopic microscope. […] Comparison between two groups was done and analyzed by the Wilcoxon's rank sum test; while comparison between multiple groups was done and analyzed by the Dunnett's multiple comparison.

[3] = system: rabbit cornea; conditions: rabbit cornea assay system (Yamamoto); cited from earlier work

Structure (SMILES) | dose that significantly increased the number of chorioallantoic membranes with non-vascular region ([1]; compared with the control group, dose-dependent) | frequency of the occurrence of non-vascular region ([1]; dose 0.01 μg/egg) | Number of choriallantoic membrane with non-vascular region ([1]; dose 0.01 μg/egg) | frequency of the occurrence of non-vascular region ([1]; dose 0.1 μg/egg) | Number of choriallantoic membrane with non-vascular region ([1]; dose 0.1 μg/egg) | frequency of the occurrence of non-vascular region ([1]; dose 1 μg/egg) | Number of choriallantoic membrane with non-vascular region ([1]; dose 1 μg/egg) | frequency of the occurrence of non-vascular region ([1]; dose 10 μg/egg) | Number of choriallantoic membrane with non-vascular region ([1]; dose 10 μg/egg) | frequency of the occurrence of non-vascular region ([1]; dose 100 μg/egg) | Number of choriallantoic membrane with non-vascular region ([1]; dose 100 μg/egg) | frequency of the occurrence of non-vascular region ([1]; dose 1000 μg/egg) | Number of choriallantoic membrane with non-vascular region ([1]; dose 1000 μg/egg) | suppression of angiogenesis induced by the S-180 tumor cells (angiogenesis index) ([2]; group C, 0.1 mg/kg orally for 5 days) | suppression of angiogenesis induced by the S-180 tumor cells (angiogenesis index) ([2]; group D, 1 mg/kg orally for 5 days, vs solvent control group (p<0.001)) | number of chorioallantoic membranes with non-vascular region compared with the control group ([1]; 100 μg/egg) | activity on angiogenic suppression [3]
C[C@]12CCC3=C4CCC(=O)C=C4CC[C@H]3[C@@H]1CC[C@@]2(O)CC#N [Dienogest, 17 α-cyanomethyl-17 β-hydroxy-estra-4, 9(10)-dien-3-one] | ≥ 0.01 μg/egg | 13.3% | 2 | 23.5% | 4 | 48.1% | 13 | 54.2% | 13 | 83.3% | 20 | 91.7% | 22 | weak suppression of angiogenesis | significantly suppressed angiogenesis | – | –
CC(=O)O[C@]1(C(C)=O)CC[C@H]2[C@@H]3C[C@H](C)C4=CC(=O)CC[C@]4(C)[C@H]3CC[C@@]21C [MPA, medroxyprogesterone acetate] | – | – | – | – | – | – | – | – | – | 50.0% | 4 | – | – | – | – | significantly increased | –
CC(=O)[C@H]1CC[C@H]2[C@@H]3CCC4=CC(=O)CC[C@]4(C)[C@H]3CC[C@]12C [progesterone] | – | – | – | – | – | – | – | – | – | – | – | – | – | – | – | – | does not have any activity on angiogenic suppression
